Structures can show the parent of a compound that is named as a salt.
Columns and labels:
rat EP4 receptor = rat EP4 receptor (Rattus norvegicus, UniProt P43114); assay: Evaluation test on EP4 receptor affinity in rat ([3H]PGE2 receptor binding test, membrane fraction); set-up: expressed in transfected cells; host or cells: HEK293 cells, transient transfection (Lipofectamine 2000); membrane fraction used; conditions: [3H]PGE2 0.3 nM, membrane fraction of rat EP4 expressing HEK293 cells
Protocol: A rat EP4 receptor cDNA was subcloned into an expression vector (pcDNA3.1-V5-His-topo, manufactured by Invitrogen Corporation) to prepare a rat EP4 expression vector. HEK293 cells were cultured in a collagen type I-treated 15 cm dish (manufactured by Asahi Techno Glass Co. Ltd.) to a confluence of 70%. An Opti-MEM culture medium at 1.2 mL/dish and a transfection reagent (Lipofectamine 2000, manufactured by Invitrogen Corporation) at 60 μL/dish were mixed, followed by being left to stand at room temperature for 5 minutes. Then, the rat EP4 receptor expression vector at 15 μg/dish was added thereto, followed by being left to stand at room temperature for 30 minutes. The liquid mixture of the transfection reagent was added into the dish, followed by culturing for 20 to 24 hours. The cell culture was carried out in a CO2 incubator (37° C., 5% CO2).
The culture medium was removed by suction, 10 mL of cooled PBS was added thereto per 15 cm dish, and the cells were scraped using a cell scraper. After washed with cooled PBS (1,200 rpm, 4° C., 5 minutes), suspended in 6 mL/dish of cooled 20 mM Tris-HCl (pH 7.4; manufactured by Nacalai Tesque Inc., 5 mM EDTA included) and homogenized using a Polytron, the homogenate was centrifuged (26,000 rpm, 20 minutes, 4° C.). The obtained precipitate was resuspended in cooled 20 mM Tris-HCl and homogenized again using a Polytron, and the homogenate was centrifuged (26,000 rpm, 20 minutes, 4° C.). The obtained precipitate was resuspended in 50 mM HEPES (pH 7.5; manufactured by Dojindo Laboratories) at 1 mL per dish, homogenized using a Polytron, and freeze-stored at −80° C. as a membrane fraction. At this time, a part thereof was used for the measurement of the protein concentration. Measurement of the protein concentration was carried out using a Protein assay stain (manufactured by Bio-Rad Laboratories) in accordance with a standard Protocol as appended in duplicate.
[^3H]PGE2 50 μL (final concentration 0.3 nM; manufactured by Perkin Elmer Co., Ltd.), 100 μL (20 μg/well) of the membrane fraction prepared from the rat EP4 expression cell, and 50 μL of a test compound were mixed in a 96-well microplate (manufactured by Sumitomo Bakelite Co., Ltd.), incubated at room temperature for 1 hour, then filtered by suction on a microplate (UniFilter-96 GF/B, manufactured by Perkin Elmer Co., Ltd.) using a cell harvester (FilterMate Harvester, manufactured by Perkin Elmer Co., Ltd.), and washed three times with 300 μL/well of a cooled assay buffer (50 mM HEPES, 10 mM MgCl2). Dilution of [^3H]PGE2 and the membrane fraction was carried out using the assay buffer, and dilution of the test compound and the unlabeled PGE2 was carried out using dimethyl sulfoxide and the assay buffer. The UniFilter-96 GF/B was treated by preliminarily washing twice with 200 μL/well of the cooled assay buffer. The UniFilter-96 GF/B after filtration was dried in a dryer overnight, 50 μL/well of a liquid scintillation cocktail (MicroScint20, manufactured by Perkin Elmer Co., Ltd.) was added thereto, and the radioactivity was then measured using a liquid scintillation counter for a microplate (TopCount, manufactured by Perkin Elmer Co., Ltd.). For measurement of the non-specific binding, an unlabeled PGE2 (final concentration 1 μM; manufactured by Cayman Chemical Company) was added. All of the measurements were carried out in duplicate, and the specific binding amount was determined by subtracting the non-specific binding amount from the total binding amount.
According to the test method as described above, the rat EP4 receptor affinity (Ki) of the compound of the formula (I) was measured. […] In this connection, Ex means Example Compound number.

rat EP3β receptor = target: T1, rat EP3β receptor (Rattus norvegicus, UniProt P34980); assay: Rat EP3 receptor agonistic/antagonistic action (intracellular Ca2+, FLIPR, HEK293 stable expression cells); type: cell-based; conditions: inhibition of intracellular Ca2+ increasing action by PGE2; read-out: RatEP3 Antagonistic Action IC50
T1 construct: expressed in transfected cells
T1 sequence (P34980 1-361 isoform P34980-2): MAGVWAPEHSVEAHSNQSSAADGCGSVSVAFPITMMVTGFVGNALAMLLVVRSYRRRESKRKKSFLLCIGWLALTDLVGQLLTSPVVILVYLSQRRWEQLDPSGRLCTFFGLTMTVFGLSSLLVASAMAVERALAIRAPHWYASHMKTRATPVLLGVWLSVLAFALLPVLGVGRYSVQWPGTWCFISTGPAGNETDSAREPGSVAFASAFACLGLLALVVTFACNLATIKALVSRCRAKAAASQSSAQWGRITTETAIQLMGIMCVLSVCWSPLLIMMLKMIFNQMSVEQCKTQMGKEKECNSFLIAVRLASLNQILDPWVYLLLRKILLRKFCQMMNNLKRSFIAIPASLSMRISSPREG
Protocol: Using rat EP1 or rat EP3β receptor stable expression cells, the intracellular Ca^2+ concentration was measured using a fluorescent imaging plate reader (FLIPR manufactured by Molecular Devices Corporation). The agonistic activity was evaluated by the intracellular Ca^2+ increasing action of the test compound, and the antagonistic activity was evaluated by the inhibiting action of the test compound on the intracellular Ca^2+ increasing action by PGE2.
The cDNA of the rat EP 1 or EP3β receptor was subcloned into an expression vector (pcDNA3.1-V5-His-topo, manufactured by Invitrogen Corporation). This expression vector was introduced into HEK293 cells (American Type Culture Collection) to prepare a rat EP1 or EP3β receptor stable expression cell line. These cells were seeded onto a 96-well poly-D-lysin treated black wall clear bottom plate (manufactured by Becton, Dickinson and Company) at 2 to 3×10^4 cell/well, and used for the experiment the next day. The measurement of the intracellular Ca^2+ concentration was carried out by an FLIPR calcium 3 assay kit (manufactured by Molecular Devices Corporation). The culture medium of each well was removed by suction and replaced with a loading buffer (Hank's balanced salt solution containing 20 mM HEPES-NaOH (pH 7.4), 2.5 mM Probenecid, 0.1% bovine serum albumin, and a color), followed by incubating at room temperature for 3 hours and loading a color. For the evaluation of the agonistic action, the change in the intracellular Ca^2+ concentration was determined from the difference in the maximum value of the intracellular Ca^2+ concentration after the addition of the test compound and the value before the addition of the test compound. For the evaluation of the antagonistic action, after incubating the test compound for 5 minutes, PGE2 was added thereto to determine the change in the intracellular Ca^2+ concentration by PGE2.
Further, NE means that the action has no significance.

rat EP4 receptor, sequence (P43114 whole entry): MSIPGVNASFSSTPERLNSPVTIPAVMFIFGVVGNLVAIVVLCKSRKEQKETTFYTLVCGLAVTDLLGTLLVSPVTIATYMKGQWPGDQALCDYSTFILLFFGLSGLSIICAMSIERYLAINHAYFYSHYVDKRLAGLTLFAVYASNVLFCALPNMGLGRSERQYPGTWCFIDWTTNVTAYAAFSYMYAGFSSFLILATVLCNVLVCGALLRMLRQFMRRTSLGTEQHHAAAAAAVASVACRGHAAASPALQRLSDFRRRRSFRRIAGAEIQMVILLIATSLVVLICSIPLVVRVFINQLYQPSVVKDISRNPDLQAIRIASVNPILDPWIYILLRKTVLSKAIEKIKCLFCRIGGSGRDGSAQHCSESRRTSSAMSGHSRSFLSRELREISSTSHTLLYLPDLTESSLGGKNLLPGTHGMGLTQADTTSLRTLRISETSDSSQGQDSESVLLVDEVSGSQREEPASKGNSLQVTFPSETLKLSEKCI

Ki (rat EP4 receptor) [µM]	IC50 (rat EP3β receptor) [µM]	Compound
0.011	> 10	O=C(O)c1ccc(CCn2c(CN3CCc4ccc(F)cc43)c(Cl)cc(Cl)c2=O)cc1 [Example 9, 4-(2-{3,5-dichloro-6-[(6-fluoro-2,3-dihydro-1H-indol-1-yl)methyl]-2-oxopyridin-1(21-1)-yl}ethyl)benzoic acid]
0.01	> 10	O=C(O)c1ccc(CCn2c(CNc3cccc(OC(F)(F)F)c3)c(Cl)cc(Cl)c2=O)cc1 [Example 107]
0.011	> 10	CCC[C@H]1CCCN1Cc1c(Cl)cc(Cl)c(=O)n1CCc1ccc(C(=O)O)cc1 [Example 17, 4-{2-[3,5-dichloro-2-oxo-6-{[(2S)-2-propylpyrrolidin-1-yl]methyl}pyridin-1(2H)-yl]ethyl}benzoic acid trifluoroacetate]
0.011	≥ 10	CN(Cc1c(Cl)cc(Cl)c(=O)n1CCc1ccc(C(=O)O)cc1)c1cccc(Cl)c1 [Example 160]
